Source: patent publication US20210402002A1, “CONJUGATE” (priority 2018, published 2021)

Experiments:
[1] = tested on: HSC-2 cancer cells; experiment: FACS staining of HSC-2 cells with lectins, Galectin-1 and Siglec-7 after incubation with glycosylation inhibitors; format: cell-based; settings: 2 days, compared to untreated cells; for sialylation/Siglec-7 ligand glycosylation, SNA-I and Siglec-7 staining: 200 μM; for Galectin-1 ligand glycosylation, lectin and Galectin-1 staining: 100 μM
Experimental: In another experiment, HSC-2 cancer cells were cultured for two days, after which glycosylation inhibitors were added to the cell culture medium: 200 μM β-3-Fax-Neu5Ac and 100 μM β-4-F-GlcNAc. The cells were then cultured for 2 days with inhibitors. In parallel, untreated cells were cultured in normal cell culture medium. For flow cytometry analysis cells were detached with trypsin, washed, and stained with FITC-conjugated lectins, AlexaFluor488-conjugated Galectin-1 and recombinant human Siglec-7 (R&D Systems) at +4° C. for 30-45 minutes (the Siglec-samples were further stained with AlexaFluor488-conjugated anti-human IgG antibody at +4° C. for 30-45 minutes). FACS was performed as above.

[2] = tested on: SKBR-3 cells; experiment: ADCC assay (LDH cytotoxicity) with SKBR-3 cells pre-incubated with glycosylation inhibitors; format: cell-based
Experimental: (§1) SKBR-3 and SKOV-3 cells were cultured on 96-well plates in recommended conditions and incubated with or without glycosylation inhibitors or ADCs for four days as described above. […] After 3.5 h at +37° C., cytotoxicity was assessed with commercial lactate dehydrogenase assay kit (Cytotoxicity detection kit (LDH), Thermo Fischer Scientific) and the cytotoxicities were calculated as proportion of killed cells (%, average of three parallel wells).

[3] = tested on: SKOV-3 ovarian carcinoma cells; experiment: FACS staining of SKOV-3 cells with labeled lectins and Galectins after incubation with glycosylation inhibitors; format: cell-based; settings: compared to untreated cells; for cell surface sialylation, SNA-I-FITC lectin staining: 100 μM, 3 days; for Galectin ligand expression, LEA-FITC, Galectin-1 and Galectin-3 staining: 50 μM, 4 days
Experimental: SKOV-3 ovarian carcinoma cells (ATCC, Manassas, Va., USA) were cultured according to ATCC's instructions and incubated in the presence of either 50 μM 2-acetamido-2,4-dideoxy-4-fluoro-1,3,6-tri-O-acetyl-D-glucose for 4 days (β-4-F-GlcNAc; Sussex Research, Ottawa, Canada), 100 μM 5-acetamido-3,5-dideoxy-3-fluoro-2,4,7,8,9-penta-O-acetyl-D-erythro-L-manno-2-nonulosonic acid methyl ester (β-3-Fax-Neu5Ac; Tocris Bioscience, Abingdon, United Kingdom) for 3 days, or DMSO carrier control in parallel. After the incubation, cells were stained with fluorescein-labeled lectins SNA-I-FITC for α2,6-sialylation, LEA-FITC for poly-N-acetyllactos-amines (both from EY Labs, San Mateo, Calif., USA), Alexa Fluor 488-conjugated human recombinant Galectin-1, and Alexa Fluor 488-conjugated human recombinant Galectin-3 (both from Abcam, Cambridge, United Kingdom). Cells were washed and stored on ice in the dark until analysed by FACSAriaII flow cytometer.

[4] = tested on: SKOV-3 cells; experiment: ADCC assay (LDH cytotoxicity) with SKOV-3 cells pre-incubated with glycosylation inhibitors; format: cell-based
Experimental: as §1

[5] = tested on: SKBR-3 cells; experiment: N-glycan profiling by MALDI-TOF MS, high-mannose N-glycans (mannosidase I inhibition); format: cell-based; settings: 10 μM, four days, control cells 7.07
[6] = tested on: SKBR-3 cells
[7] = tested on: egg embryos; experiment: Embryo toxicity in the CAM in vivo trial (% alive egg embryos); design: species or system chicken; settings: alive egg embryos at end of study; same dosing; PBS control 83
Experimental: (§2) The study was performed by Inovotion SAS (La Tronche, France) as follows: Fertilized chicken eggs were incubated at 37.5° C. with 50% relative humidity for 9 days (E9), when the chorioallantoic membrane (CAM) was dropped down by drilling a small hole through the eggshell into the air sac, and a 1 cm^2 window was cut in the eggshell above the CAM. The NCI-N87 cell line was cultivated in RPMI-1640 medium supplemented with 10% FBS and 1% penicillin/streptomycin. On day E9, cells were detached by trypsin, washed with complete medium and suspended in graft medium. An inoculum of 2 million cells was added onto the CAM of each egg. […] On day 18 (E18) the upper portion of the CAM was removed, washed in PBS and then directly transferred in PFA (fixation for 48 h). The tumors were then carefully cut away from normal CAM tissue and weighed. Eggs were checked at each treatment time, or at least every two days, for viability during the study. At the end of the study, the number of dead embryos was counted and combined with the observation of eventual visible macroscopic abnormalities (observation done during the sample collection) to evaluate the toxicity.

[8] = tested on: NCI-N87 cancer cell line tumors; experiment: In vivo efficacy trial, tumors on chicken egg chorioallantoic membrane (CAM); settings: day E18, trastuzumab and tunicamycin-ADC single dose 2.5 mg/kg, pembrolizumab […] five doses, PBS control 32.2
Experimental: as §2

[9] = tested on: HER2; experiment: Inhibition of HER2 glycoprotein N-glycosylation in SKBR-3 cells (SDS-PAGE, anti-HER2 immunoblot); format: cell-based, human
Source text: After six days' culture, the cells were lysed and samples from each treatment were subjected to SDS-PAGE and immunoblotting with anti-HER2 antibody (anti-human ErbB2/Her2 goat polyclonal antibody AF1129, R&D Systems) with standard procedures.

[10] = second assay, SKBR-3, 50 μM inhibitor and trastuzumab only, no effector cells
[11] = second assay, SKBR-3, 50 μM inhibitor, trastuzumab and effector cells applied
[12] = SKOV-3, 50 μM inhibitor and trastuzumab only, no effector cells
[13] = SKOV-3, 50 μM inhibitor, trastuzumab and effector cells applied

Q: What does the source list for `COC(=O)C1(OC(C)=O)O[C@@H]([C@H](OC(C)=O)[C@@H](COC(C)=O)OC(C)=O)[C@H](NC(C)=O)[C@@H](OC(C)=O)[C@H]1F` (stereo partly drawn) [P-3Fax-Neu5Ac, 5-acetamido-3,5-dideoxy-3-fluoro-2,4,7,8,9-penta-O-acetyl-D-erythro-L-manno-2-nonulosonic acid methyl ester]?
A: sialylation/Siglec-7 ligand glycosylation, SNA-I and Siglec-7 staining [1]: effective inhibition; sialylation/Siglec-7 ligand glycosylation, SNA-I and Siglec-7 staining ([1]; listed as β-3-Fax-Neu5Ac): clearly decreased; absorbance reading in the cytotoxicity assay ([2]; third assay, SKBR-3, 50 μM inhibitor, trastuzumab and effector cells applied): about 0.7; cell surface sialylation, SNA-I-FITC lectin staining [3]: effective inhibition; cell surface sialylation, SNA-I-FITC lectin staining ([3]; listed as β-3-Fax-Neu5Ac): clearly decreased

Q: `CC(=O)N[C@H]1C(OC(C)=O)O[C@H](COC(C)=O)[C@@H](F)[C@@H]1OC(C)=O` (stereo partly drawn) [P-4F-GlcNAc, 2-acetamido-2,4-dideoxy-4-fluoro-1,3,6-tri-O-acetyl-D-glucose] was tested. Which “Galectin-1 ligand glycosylation, lectin and Galectin-1 staining” value [1] did it give?
A: Its value is “effective inhibition”.

Q: And the “Galectin-1 ligand glycosylation, lectin and Galectin-1 staining” value ([1]; listed as β-4-F-GlcNAc)?
A: The value was “clearly decreased”.

Q: And the “cytotoxicity (proportion of killed cells)” value [2, 10]?
A: Its value is 1-2%.

Q: What about the “cytotoxicity (proportion of killed cells)” value [2, 11] of the same molecule?
A: Its value is “about 16%”.

Q: What about the “Galectin ligand expression, LEA-FITC, Galectin-1 and Galectin-3 staining” value [3] of the same molecule?
A: The value was “effective inhibition”.

Q: What about the “Galectin ligand expression, LEA-FITC, Galectin-1 and Galectin-3 staining” value ([3]; listed as β-4-F-GlcNAc) of the same molecule?
A: The value was “clearly decreased”.

Q: And the “cytotoxicity (proportion of killed cells)” value [4, 12]?
A: Its value is “no cytotoxicity was observed”.

Q: What about the “cytotoxicity (proportion of killed cells)” value [4, 13] of the same molecule?
A: Its value is “about 5%”.

Q: With `O=C1N[C@@H]2[C@@H](O)[C@@H](O)[C@H](O)[C@@H](CO)N2C1=O` [kifunensine] as the molecule, how does the “average number of mannose residues (Man) in the Man5-9GlcNAc2 glycan signal series” value [5] read?
A: The value was 8.56.

Q: What about the “cytotoxicity (proportion of killed cells)” value ([2]; first assay, SKBR-3, 10 μM inhibitor and trastuzumab only, no effector cells) of the same molecule?
A: Its value is “no cytotoxicity was detected”.

Q: What about the “cytotoxicity (proportion of killed cells)” value ([2]; first assay, SKBR-3, 10 μM inhibitor, trastuzumab and effector cells applied) of the same molecule?
A: Its value is 18.5%.

Q: What about the “cytotoxicity (proportion of killed cells)” value [2, 10] of the same molecule?
A: Its value is 2-3%.

Q: What about the “cytotoxicity (proportion of killed cells)” value [2, 11] of the same molecule?
A: Its value is “about 19%”.

Q: What about the “cytotoxicity (proportion of killed cells)” value [4, 12] of the same molecule?
A: The value was “no cytotoxicity was observed”.

Q: And the “cytotoxicity (proportion of killed cells)” value [4, 13]?
A: Its value is “about 2%”.

Q: “omalizumab-MC-VC-PAB-DMAE-tunicamycin DAR=8 ADC: DAR=8 conjugate of MC-VC-PAB-DMAE-tunicamycin V prepared from omalizumab (negative control antibody)” was tested. Which “cytotoxicity to the cells in the viability assay” value ([6]; five or eight days, up to 1 μM) did it give?
A: The value was “no apparent toxicity”.

Q: What does the source list for “pembrolizumab: pembrolizumab (Keytruda, Merck)”?
A: % alive [7]: 58%; Mean tumor size [8]: 34.9 mg

Q: For tunicamycin, which IC50 ([6]; read-out: IC50 (cellular viability), six days) is on record?
A: The IC50 was 0.3 µM.

Q: What about the “cytotoxicity (proportion of killed cells)” value ([2]; first assay, SKBR-3, 1 μM inhibitor and trastuzumab only, no effector cells) of the same molecule?
A: The value was “no cytotoxicity was detected”.

Q: What about the “cytotoxicity (proportion of killed cells)” value ([2]; first assay, SKBR-3, 1 μM inhibitor, trastuzumab and effector cells applied) of the same molecule?
A: The value was 40.4%.

Q: What about the “cytotoxicity (proportion of killed cells)” value ([2]; second assay, SKBR-3, 0.5 μM inhibitor and trastuzumab only, no effector cells) of the same molecule?
A: Its value is “about 4%”.

Q: And the “cytotoxicity (proportion of killed cells)” value ([2]; second assay, SKBR-3, 0.5 μM inhibitor, trastuzumab and effector cells applied)?
A: The value was “about 46%”.

Q: What about the EC50 ([9]; six days' incubation, immunoblot, read-out: EC50 (concentration with 50% efficacy) of decrease of relative MW of HER2, defective N-glycosylation) of the same molecule?
A: Its EC50 is 0.07 µM.

Q: And the “decrease of relative MW of HER2 upon inhibition of N-glycosylation” value ([9]; six days, SDS-PAGE)?
A: The value was “about 15 kDa”.

Q: What about the “cytotoxicity (proportion of killed cells)” value ([4]; SKOV-3, 0.5 μM inhibitor and trastuzumab only, no effector cells) of the same molecule?
A: The value was “about 2%”.

Q: What about the “cytotoxicity (proportion of killed cells)” value ([4]; SKOV-3, 0.5 μM inhibitor, trastuzumab and effector cells applied) of the same molecule?
A: The value was “about 5%”.
